Each block holds one compound with its values, some of them ahead of it.
Assays:
Format in all cases: physicochemical
[1] = Filter retention: percent recovery of analyte after syringe-pump filtration, HPLC at 295 nm pre- and post-filtration
Procedure: In particular, compositions comprising BMS-747158-01 and BMS-747159-01 were prepared in water comprising absolute ethanol (4 wt. %) and sodium ascorbate (50 mg/mL; 5 wt. %) then loaded into plastic syringes (Norm-Ject™; 12 mL) and placed onto an automated syringe pump. Select filters were then placed on each respective syringe and the composition pumped through the units in a controlled fashion. In all cases, gravimetric analysis of the solution transfer process was performed in order to monitor efficiency of the liquid handling steps. Subsequent quantitative analysis of filter retention was then performed following HPLC determination of the absolute concentration of each analyte in both the pre- and post-filtered solutions; HPLC analysis with detection at 295 nm was performed according to established methods. The following equation was then utilized to determine the percent recovery for each analyte:
[formula] Note a higher value of percent recovery equates to lower retention of the respective analyte, and thus improved overall filter performance. The analysis described herein captures both the mass of the compound that is retained as well as the volume of liquid that is retained. As no normalization is performed, the analysis thus allows for direct comparison of relevant filter parameters.
The compositions comprising BMS-747158-01 and BMS-747159-01 were passed through a variety of filters, as described herein. Individual filter parameters varied in terms of both membrane and housing composition, overall filter diameter, and in some instances the applied coating (Table 1). Further, effects of both individual analyte concentration as well as the overall rate of filtration were also evaluated.

[2] = Measured log D (relative lipophilicity of analytes); details: relative to BMS-747158-01
[3] = Retention of flurpiridaz F 18 on PVDF, PTFE and RC filters with synthesis modules; details: Siemens Explora GN/LC (manual) and GE TracerLab MX (automated) modules; FIG. 9
Source text: This was particularly surprising since structurally and chemically, the PVDF filter is more similar to the PTFE filter than the RC filter. Further, the data substantiate that use of the RC filter membrane improves recovery of ^18F-bearing radiopharmaceuticals across multiple synthesis module platforms.

retention by filter housing composition ([1]; HDPE and PP housings (no aromatic rings), filters of identical diameter, FIG. 5): retained lower amounts
retention on PTFE and RC membranes in comparison to PVDF ([1]; PTFE and RC filter membranes vs PVDF, FIG. 8): retained lower amounts
retention by membrane composition ([1]; PVDF membrane vs other membranes, filters of identical diameter, FIG. 4): retains the greatest amount
retention after the initial filtration ([1]; Pall PVDF filter, initial filtration, FIG. 6): retained large amounts
Structure (SMILES): CC(C)(C)n1ncc(OCc2ccc(COCCF)cc2)c(Cl)c1=O [BMS-747158-01]

lipophilicity (measured log D, relative) [2]: lower inherent lipophilicity
Structure (SMILES): CC(C)(C)n1ncc(OCc2ccc(COCCO)cc2)c(Cl)c1=O [BMS-747159-01]

retention on PTFE and RC filters vs PVDF filter [3]: retain far less
Structure (SMILES): CC(C)(C)n1ncc(OCc2ccc(COCC[18F])cc2)c(Cl)c1=O [flurpiridaz F 18]

Reference: patent US10568978B2, “Radiopharmaceutical synthesis methods” (Lantheus Medical Imaging, Inc., priority 2012, dated 2020)
